Tests used:
[1] = test system: apoptosis in an cell-free system; details: Nicholson et al., Nature 376 (1995), read-out: Dose causing 50% inhibition of apoptosis; cited from earlier work
[2] = test system: traumatic brain injury in C57BL/6 mice; experiment: Weight drop traumatic brain injury, lesion volume by TTC staining; type: in vivo, mouse
Description: Brain trauma experiments and lesion quantification were performed essentially as described (Chan, P. H., et al., Ann. NY Acad. Sci. 738:93-103 (1994)). Spontaneously ventilating adult mice were initially anesthetized with halothane in 70% N2O and 30% O2, and fixed in a stereotactic frame. Before trauma, an atraumatic craniectomy was performed by removing the right parietal bone posterior to the coronal, lateral to the sagittal, and anterior to the lambdoid suture. Laterally, the craniectomy was extended to the insertion of the temporalis muscle. […] A 20 g weight was dropped inside a cylinder from a height of 150 mm onto the piston (final speed v=1.70 m/s). Twenty-four hours after trauma, brains were removed and sectioned into five coronal (2 mm) slices and stained with 2% 2,3,5-triphenyl tetrazolium chloride (TTC) as described for a weight drop trauma model (Chan, P. H., et al., Ann. NY Acad. Sci. 738:93-103 (1994)). Surgical procedure as well as quantification of lesion size was performed by an investigator naive to the animal identity. Lesion volume was calculated using an image analysis system (M4, Imaging Research, St. Catherines, Ontario, Canada) from the total lesion volume integrated from the volumes of each single section, after subtracting the volume of the deficient cortex as caused by piston penetration. The volume of the piston penetration was calculated as that of a cylinder (pr^2h=3.14×1.5^2×3 mm^3=21.2 mm^3), where r is the radius of the piston, and h the depth of penetration. The trauma protocol was approved by the IACUC. The NSE-M17Z and wild-type littermate mice were bred from C57BL/6 background, and the wild-type mice used for zVAD-fink injection experiments were C57BL/6 (Taconic Farms, Germantown, N.Y.). NSE-M17Z mice were genotyped as previously described (Friedlander, R. M., et al., J. Exp. Med. 185:933-940 (1997)). zVAD-fmk (480 ng) or vehicle (DMSO 0.4%) was injected i.c.v. (2 μl; bregma −0.9 mm lateral, −0.1 mm posterior, −3.1 mm deep) 1 hour before or 1 hour after trauma.
Data are presented as mean±SEM. Statistical comparisons were made by Student's t-test. For comparison of lesion size two-way ANOVA followed by Tukey posthoc tests was applied. P<0.05 was considered statistically significant. For statistical evaluation by Student's t-test, data on OH production was log transformed.

[3] = target: Interleukin-1beta converting enzyme (ICE; caspase-1), wild-type murine, endogenous (mouse) (UniProt P29452); experiment: cell-based or functional assay
Sequence of UniProt P29452 (P29452 whole entry D56N): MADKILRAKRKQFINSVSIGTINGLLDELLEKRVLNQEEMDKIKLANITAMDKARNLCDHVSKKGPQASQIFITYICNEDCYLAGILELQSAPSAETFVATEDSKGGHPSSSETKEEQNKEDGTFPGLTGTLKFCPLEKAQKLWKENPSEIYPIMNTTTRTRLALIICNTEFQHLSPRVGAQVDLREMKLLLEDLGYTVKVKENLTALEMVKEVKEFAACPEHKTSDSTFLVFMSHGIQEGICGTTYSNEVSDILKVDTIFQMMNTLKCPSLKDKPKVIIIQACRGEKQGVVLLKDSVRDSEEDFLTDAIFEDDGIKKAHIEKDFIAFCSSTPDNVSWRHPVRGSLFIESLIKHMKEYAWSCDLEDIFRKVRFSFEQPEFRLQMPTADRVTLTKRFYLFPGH

## Ac-DEVD-CHO
[1]
  IC50: 1000 nM

## N-benzyloxycarbonyl-Val-Ala-Asp-fluoromethylketone [zVAD-fink]
[2]; 480 ng i.c.v. 1 hour after trauma, 24 hours following impact
  Total lesion volume vs. vehicle (significance): not significantly different
[2]; 480 ng i.c.v. 1 hour after trauma, P<0.05, n=5
  Size of lesion in the two most anterior sections (2-6 mm) vs. vehicle: significantly reduced
[2]; 480 ng i.c.v. 1 hour prior to impact, lesion assessed 24 hours following trauma
  Reduction of total lesion volume vs. vehicle-injected mice: 53%
[2]; 480 ng i.c.v. one hour following trauma, lesion assessed 24 hours following trauma
  Reduction of lesion volume vs. vehicle-injected mice: 19%

## fused mutant ICE (C284G)-lacZ protein (M17Z), expressed in neurons of NSE-M17Z transgenic mice (from UniProt P29452 1-402)
[3]
  mature IL-1β in whole brain lysates after systemic LPS challenge (ELISA specific for mature IL-1β): 74.7 % less
